Each block holds one compound with its values, some of them ahead of it.
Columns and labels:
[1] = system: neutrophil adhesion; assay: Reperfusion model on the open rabbit heart (Langendorff), leukocyte accumulation and arrhythmias; details: perfused rabbit heart, 30 min ischemia, 30 min reperfusion; vs untreated hearts
Procedure: Reperfusion model for investigating the influence of neutrophil adhesion in the course of ischemialreperfusion carried out on the open rabbit heart.
The hearts are perfused with nutrient solution, and also with/without leukocytes and/or active compound, at constant pressure using the Langendorff technique. After that, an ischemia is elicited by ligating the left coronary artery (30 min). Following reperfusion (30 min), the accumulation of leukocytes is evaluated histologically. During the course of the experiment, potentials and arrhythmias are measured at 256 electrodes (total duration of the experiment, approx. 90 min). […] The compounds according to the present invention, and also their physiologically tolerated salts, are very well suited, owing to their valuable pharmacological properties, for use as medicines in mammals, in particular humans.

[2] = system: adhesion of leukocytes to the endothelium; assay: Leukocyte adhesion in vivo (intravital microscopy on the rat mesentery, LPS-induced); details: 10 mg/kg i.v., SPRD(m) rat, LPS 15 mg/kg 15 min after test substance; vs untreated controls
From the text: Leukocyte adhesion--Examination of the efficacy of the compounds according to the invention in vivo (intravital microscopy on the rat):
The induced adhesion of leukocytes is quantified in the rat mesentery using an intravital microscopic investigation technique (Atherton A. and Born G. V. R., Quantitative investigations of the adhesiveness of circulating polymorphonuclear leukocytes to blood vessel walls. J. Physiol. 222, 447-474, 1972); herein incorporated by reference. A prolonged anesthesia is instituted, under inhalation anesthesia with ether, by injecting urethane ([…] of body weight) intramuscularly. Blood vessels (femoral vein for injection of substances and carotid artery for measuring blood pressure) are exposed by dissection and catheters are then tied into them. After that, the corresponding transparent tissue (mesentery) is exposed spread out on a microscope stage and overlaid with paraffin oil at 37° C. […] The resulting increase in the adhesion of leukocytes to the endothelium is quantified directly by means of vital microscopy or using fluorescence dyes. […] The number of rolling leukocytes (i.e. all leukocytes which are visibly rolling and which are slower than the flowing erythrocytes) and the number of leukocytes which are adhering to the endothelium (dwell time longer than 5 seconds) are recorded every 10 minutes for a period of 60 minutes. […]

[3] = biological target: T1, E selectin (Homo sapiens, UniProt P16581); assay: HL60 cell adhesion assay on recombinant, soluble E selectin-IgG1 fusion protein; type: cell-based; details: HL60 cells
T1 construct: formed from the extracytoplasmic domain of either E selectin or P selectin; made in house; host or cells: COS-7 cells (ATCC), transient transfection with DEAE dextran; secreted into culture supernatant, captured on anti-human IgG
T1 sequence (P16581 22-556): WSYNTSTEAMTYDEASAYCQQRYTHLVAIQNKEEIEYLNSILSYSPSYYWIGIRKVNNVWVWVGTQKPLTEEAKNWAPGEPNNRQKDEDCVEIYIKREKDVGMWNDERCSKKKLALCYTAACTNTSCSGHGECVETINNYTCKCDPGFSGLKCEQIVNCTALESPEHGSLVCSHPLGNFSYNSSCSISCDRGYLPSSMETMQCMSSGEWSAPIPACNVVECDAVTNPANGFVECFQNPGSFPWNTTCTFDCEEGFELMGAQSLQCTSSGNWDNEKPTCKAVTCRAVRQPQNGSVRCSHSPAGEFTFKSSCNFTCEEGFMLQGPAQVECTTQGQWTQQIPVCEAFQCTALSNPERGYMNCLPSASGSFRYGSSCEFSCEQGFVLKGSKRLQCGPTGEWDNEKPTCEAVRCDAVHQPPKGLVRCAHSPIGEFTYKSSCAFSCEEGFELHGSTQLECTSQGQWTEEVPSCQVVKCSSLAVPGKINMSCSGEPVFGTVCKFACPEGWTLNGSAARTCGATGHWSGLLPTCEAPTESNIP
From the text: (§1) Primary assays for investigating the effect of the compounds according to the present invention on the adherence of cells to recombinant, soluble selectin fusion proteins.
(§2) In order to test the efficacy of the compounds according to the invention of the interaction between the E and P selectins (old nomenclature, ELAM-1 and GMP-140, respectively) and their ligands, an assay is used which is in each case specific for only one of these interactions. The ligands are presented in their natural form as surface structures on promyelocytic HL60 cells. […] Recombinantly prepared soluble fusion proteins, formed from the extracytoplasmic domain of either E selectin or P selectin and the constant region of a human immunoglobulin of the IgG1 subclass, were used as binding partners.
Preparation of L selektin-IgG1
The gene construct "ELAM-Rg", published by Walz et al., 1990, was used to prepare soluble […] fusion protein.
For the purposes of expression, the plasmid DNA was transfected into COS-7 cells (ATCC) using DEAE dextran (molecular biological methods: see Ausubel, F. M., Brent, R., Kingston, R. E., Moore, D. D., Seidman, J. G., Struhl, K. and Smith, J. A. 1990. Current Protocols in Molecular Biology, John Wiley, New York). […]

[4] = biological target: T2, P selectin (Homo sapiens, UniProt P16109); assay: HL60 cell adhesion assay on recombinant, soluble P selectin-IgG1 fusion protein; type: cell-based; details: HL60 cells
T2 construct: formed from the extracytoplasmic domain of either E selectin or P selectin; made in house; culture supernatant, captured on anti-human IgG
T2 sequence (P16109 42-771): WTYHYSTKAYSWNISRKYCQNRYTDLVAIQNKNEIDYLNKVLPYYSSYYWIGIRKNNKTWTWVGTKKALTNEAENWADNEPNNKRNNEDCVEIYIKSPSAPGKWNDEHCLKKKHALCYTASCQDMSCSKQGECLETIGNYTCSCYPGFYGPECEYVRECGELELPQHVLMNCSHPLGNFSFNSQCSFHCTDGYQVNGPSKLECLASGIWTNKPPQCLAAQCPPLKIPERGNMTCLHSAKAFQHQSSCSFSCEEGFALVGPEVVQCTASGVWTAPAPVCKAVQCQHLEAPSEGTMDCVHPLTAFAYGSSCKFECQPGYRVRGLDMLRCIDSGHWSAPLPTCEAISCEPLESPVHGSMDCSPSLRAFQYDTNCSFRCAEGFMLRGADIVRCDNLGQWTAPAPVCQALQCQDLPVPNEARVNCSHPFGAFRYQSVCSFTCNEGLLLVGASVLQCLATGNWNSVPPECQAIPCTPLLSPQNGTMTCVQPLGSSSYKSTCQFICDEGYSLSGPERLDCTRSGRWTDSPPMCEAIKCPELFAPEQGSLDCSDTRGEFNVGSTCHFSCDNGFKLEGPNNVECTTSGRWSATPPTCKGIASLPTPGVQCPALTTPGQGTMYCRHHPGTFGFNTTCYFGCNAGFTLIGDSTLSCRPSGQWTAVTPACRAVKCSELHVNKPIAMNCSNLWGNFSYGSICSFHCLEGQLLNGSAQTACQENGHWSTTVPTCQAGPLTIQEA
From the text: as §1, §2
Preparation of P selectin-IgG1
The gene construct "CD62Rg", published by Aruffo et al., 1991, is used to prepare the soluble P selectin-IgG1 fusion protein. The subsequent procedure corresponds to the preparation of L selectin-IgG1 which was described in A1. Aruffo, A., Kolanus, W., Walz, G., Fredman, P. and Seed, B. 1991. CD62/-P-Selectin recognition of myeloid and tumor cell sulfatides. Cell 67, 35-44. […]
7. The quantity of BCECF-AM-labeled cells adhering in the wells is measured in a cytofluorimeter (Millipore) at a sensitivity setting of 4, an excitation wavelength of 485/22 nm and an emission wavelength of 530/25 nm.

[5] = biological target: selectin receptors; details: all known in-vitro test systems; Jacob et al., 1995; read-out: IC50 (inhibition of cell adhesion to selectin receptors); cited from earlier work
[6] = system: myocardial reperfusion injuries; details: M. Buerke et al., 1994; cited from earlier work

Compound: chondroitin sulfate
- arrhythmias [1]: fewer arrhythmias
- leukocyte accumulation [1]: less leukocyte accumulation

- IC50 [3]: 500 to 1500 µM
- IC50 [4]: 3500 to 4100 µM
Compound: C[C@@H]1O[C@@H](O[C@H](COCCCCCC(C(=O)O)C(=O)O)[C@@H](COCCCCCC(C(=O)O)C(=O)O)O[C@@H]2O[C@@H](C)[C@@H](O)[C@@H](O)[C@@H]2O)[C@@H](O)[C@H](O)[C@@H]1O [Compound 6a, 1,4-bis(5-malonyl-1-pentyloxy)-2,3-bis(α-L-fucopyranosyl)-D-threitol]
- inhibition (of leukocyte adhesion) [2]: 39%

Compound: sialyl Lewis X [SLeX]
- IC50 [5]: ~1000 µM
- use in animal experiments, myocardial reperfusion injuries [6]: used successfully

From US5811405A (Hoechst Aktiengesellschaft, priority 1996, dated 1998)
